According to paper PMC4219730 (PLoS ONE, 2014):
Where two headings read alike, the source gives them in different places.

Assays:
[1] = tested on: xenografts of a human meningioma cell line (CH-157MN); test: Static PET/CT study: SUVmax and SUV ratios in mice bearing meningioma xenografts; format: in vivo, NUDE NU/NU mice; settings: for T/L SUV ratio (tumor-to-liver): SUVmax of tumor normalized to SUVmax of liver, p<0.001; for Visualization of flank tumors in PET/CT images: comparative PET/CT images of the same animal
Experimental: (§1) Animals were scanned on a small-animal PET scanner (ARGUS PET-CT, SEDECAL, Madrid, Spain) under anesthesia (isoflurane, 3% induction and 1.5% maintenance in 100% O2). Imaging was performed 7–28 days after tumor cell inoculation. […] Half of the animals imaged with ^68Ga-DOTATOC were also imaged with the other two radiotracers in alternate days with respect to ^68Ga-DOTATOC (Figure 1).
(§2) Frames corresponding to the last 60 minutes of the study were summed to form a static image. Images were reconstructed using the 2D–OSEM (Ordered Subset Expectation Maximization) algorithm (16 subsets and two iterations), which yields a spatial resolution for this scanner of 1.45 mm Full Width at Half Maximum (FWHM), with a voxel size of 0.3875×0.3875×0.7750 mm^3. The energy window was 400–700 keV. Decay and deadtime corrections were applied.
Three 3D ROIs were drawn manually on the CT image, one for each tissue of interest (tumor, liver, and muscle), plus a background ROI outside the body area. Since the CT images are intrinsically registered to the PET images, the ROIs drawn on the CT image were directly overlaid on the PET image after correction for the different image sizes. The assessment of PET data included calculation of the maximum standard uptake value (SUVmax) on the static tomographic study and computation of the volume of distribution (Vt) from the dynamic study.
Tumor, muscle, and liver SUVmax values at 30–90 minutes post-injection were recorded. […] The SUVmax of the tumor lesions was normalized to the SUVmax of the liver (T/L) and muscle (T/M). The T/L and T/M SUV ratios were considered markers of the ability of the radiopharmaceutical to localize in the tumor.

SSTR2 = settings: cited from earlier work
[2] = design: method as in PMID 12937948; settings: comparison between tracers; cited from earlier work
SSTR3 = settings: cited from earlier work
SSTR5 = settings: cited from earlier work
[3] = tested on: xenografts of a human meningioma cell line (CH-157MN); test: Dynamic PET study: volume of distribution (Vt) by Logan graphical analysis; format: in vivo, NUDE NU/NU mice; settings: two-tissue reversible compartmental model, comparison between radiotracers
Experimental: as §1, §2
Three 3D ROIs were drawn manually on the CT image, one for each tissue of interest (tumor, liver, and muscle), plus a background ROI outside the body area. Since the CT images are intrinsically registered to the PET images, the ROIs drawn on the CT image were directly overlaid on the PET image after correction for the different image sizes. […]
Vt was calculated from dynamic PET data using standard Logan graphical analysis for a two-tissue reversible compartmental model. […]

SSTR in CH-157MN cells = test: Homologous competitive binding with [^125I]-somatostatin-28 in CH-157MN meningioma cells; design: species or system human; settings: 0.5 nM [^125I]-somatostatin-28, 37°C, 1 hour, mean ± SEM, three independent experiments in triplicate, read-out: IC50 (concentration of cold ligand that reduces specific binding of radioligand by 50%)
Experimental: Affinity was determined from three independent experiments performed in triplicate and was measured by means of a homologous competitive binding experiment according to Motulsky and Neubig. The IC50 (concentration of cold ligand [somatostatin-28] that reduces specific binding of radioligand by 50%) was determined by competitive binding assays with [^125I]-somatostatin-28 (Amersham Pharmacia Biotech, UK) in CH-157MN meningioma cells. Briefly, cells were incubated into a 24-well cell culture plate (2–2.5×10^5 cells/well) at 37°C for 1 hour in a CO2 incubator with 0.5 nM [^125I]-somatostatin-28 (Amersham Pharmacia Biotech, UK) in the presence of increasing concentrations of somatostatin-28 (0.1 nM-10 µM) in 0.25 ml of binding media (DMEM, 2 mM L-glutamine, 50 units/ml penicillin and 50 µg/ml streptomycin). The reaction medium was aspirated after incubation. Cells were rinsed with 0.5 ml of ice-cold PBS twice and lysed in 0.5 ml of 1 N NaOH for five minutes. The activity in cells was measured in a Packard Cobra II gamma counter. The competitive binding curves were obtained by plotting the [^125I]-somatostatin-28 bound to cells against concentrations of cold ligand. IC50 and maximum numbers of binding sites (Bmax) were calculated using Origin 7.5 software (OriginLab Corporation, Northampton, Massachusetts, USA).

[4] = comparison between radiotracers

## ^68Ga-DOTA -Tyr^3-octreotide [^68Ga-DOTATOC]
[1]; [4]
  T/L SUV ratio (tumor-to-liver): No differences were found between ^68Ga-DOTATATE and ^68Ga-DOTATOC
[1]
  Visualization of flank tumors in PET/CT images: better visualized
SSTR2
  Affinity for SSTR2: high affinity

## ^68Ga-DOTA-Nal^3-octreotide [^68Ga-DOTANOC]
SSTR2; comparison with ^68Ga-DOTATOC
  Affinity for SSTR2: higher affinity for SSTR2 than ^68Ga-DOTATOC
[2]
  Lipophilicity: more lipophilic than ^68Ga-DOTATATE and ^68Ga-DOTATOC
SSTR3
  Affinity for SSTR3: has affinity for SSTR3 and SSTR5
SSTR5
  Affinity for SSTR5: has affinity for SSTR3 and SSTR5

## ^68Ga-DOTA-Tyr^3-octreotate [^68Ga-DOTATATE]
[1]; [4]
  T/L SUV ratio (tumor-to-liver): No differences were found between ^68Ga-DOTATATE and ^68Ga-DOTATOC
[1]; SUVmax of tumor normalized to SUVmax of muscle, comparison between radiotracers
  T/M SUV ratio (tumor-to-muscle): higher than that of ^68Ga-DOTATOC (p<0.01) and ^68Ga-DOTANOC (p<0.05)
[1]
  Visualization of flank tumors in PET/CT images: better visualized
[3]
  Vt tumor: higher with ^68Ga-DOTATATE than with ^68Ga-DOTANOC and relatively similar to that of ^68Ga-DOTATOC
SSTR2
  Affinity for SSTR2: high affinity

## somatostatin-28
SSTR in CH-157MN cells
  IC50: 63.7 ± 32.3 nM
